Test results published in ChEMBL document CHEMBL3244162, “Synthesis and biological evaluation of tetramisole analogues as inhibitors of alkaline phosphatase of the 6-thiopurine-resistant tumor sarcoma 180/TG” (J Med Chem, 1979).
Counter-ions that a name gives are not always drawn. Active and inactive are the calls of the source. The rule behind the calls is not given here.

Experiments:
Format in all cases: cell-based
[1] = Inhibition of alkaline phosphatase in mouse 180/TG cells assessed as p-nitrophenyl phosphate hydrolysis by spectrophotometry; details: read-out: I50
Mus musculus [2] = species on record: Mus musculus; assay: Inhibition of alkaline phosphatase in mouse 180/TG cells assessed as p-nitrophenyl phosphate hydrolysis up to 5 mM by spectrophotometry
Mus musculus [3] = species on record: Mus musculus; assay: Inhibition of alkaline phosphatase in mouse 180/TG cells assessed as p-nitrophenyl phosphate hydrolysis up to 1 mM by spectrophotometry

IC50 [1] [µM] | SMILES | inhibition (Mus musculus [2]) [%] | inhibition (Mus musculus [3])
45 | c1ccc(C2CN3CCSC3=N2)cc1 (stereo not given) [TETRAMISOLE HYDROCHLORIDE] |  | 
 | c1ccc(C2CN3CCNC3=N2)cc1 (stereo not given) | 15 | inactive
 | c1ccc(-c2cn3c(n2)OCC3)cc1 |  | inactive
210 | c1ccc(C2CN3CCOC3=N2)cc1 (stereo not given) |  | 
